According to a melting point compilation (Tetko et al.; mined from patent text by program, amines drawn as free bases though some values may be those of a salt):

| melting point [°C] | SMILES |
| --- | --- |
| 122 to 124 | COc1cc(OC)cc(C(=CC#N)c2ccc(OC)c([N+](=O)[O-])c2)c1 |
| 227 to 229 | COc1ccc(-c2cc3ncc(C#N)c(Nc4ccc(Sc5nccn5C)c(Cl)c4)c3cc2OC)cc1 |
| 166 | CC(C)=CCC(C(=O)O)C(=O)N(Nc1ccccc1)c1ccccc1 (stereo not given) |
| 99.9 | N#CC1(C(C(=O)O)C(=O)O)CCCCC1 |
| 56 to 60 | CCOC(=O)CNCc1c(N)ccc(Cl)c1Cl |
| 208 to 211 | CC(C)CN1C(=O)C(C)(C)C(=O)Nc2ccc(C=O)cc21 |
| 142 to 143 | CN1CC(O)C(O)C(O)C1CO (stereo not given) |
| 80 to 84 | CC(=O)NCc1cc(C(C)(C)C)c(O)c(C(C)(C)C)c1 |
| 206 to 208 | CC(C)C1(C)NC(c2ncc(Br)cc2C(=O)O)=NC1=O (stereo not given) |
| 277 to 280 | Nc1cc2c(Nc3ccc(Cl)c(Cl)c3)ncnc2cn1 |
| > 250 | NCC1Cc2cc(-c3ccccc3)cc(-c3ccccc3)c2O1 (stereo not given) |
| 164 to 165 | COc1ccc(-c2nc3n(c2-c2cccnc2)CCC3)cc1 |
| 178 to 179 | Cn1c(NC(=N)N)nc2ccccc21 |
| 148 to 149 | Cc1oc(-c2ccccc2)nc1CCOc1ccc(COc2nn(C)cc2CC(=O)O)cc1 |
| 162 to 164 | CC(=O)NCc1nc2c(N)nc(C)c(C)c2n1CC(C)C |
| 200 to 202 | Nc1c(-c2nc(-c3ccco3)n[nH]2)nnn1Cc1ccc(F)cc1 |
| 266 to 268 | CCCC(=O)c1cnc2c(OC)cccc2c1Nc1ccc(O)c(F)c1 |
| 141 to 143 | Cc1cc(SC(C)C)c(NC(=O)CCCSc2nc3c(C)c(Cl)cc(C(C)C)c3o2)c(SC(C)C)n1 |
| 176 to 178 | CCOC(=O)c1ccccc1-n1nc(C(=O)OCC)c2csc(N)c2c1=O |
| 100 | CS(=O)(=O)N1CCN([C@@H](CNS(=O)(=O)c2ccc(OCc3ccnc(-c4ccccc4)c3)cc2)C(=O)NO)CC1 |
| 72 | O=C(Oc1ccc(Cl)cc1)c1cccc(Cl)c1 |
| 111 to 115 | CC(C)Cn1c(=O)n(C)c(=O)c2c(Sc3cccs3)c(C(=O)c3cccnc3)sc21 |
| > 300 | CC(C)C[C@H](NC1CCOCC1)C(=O)O |
| 113 to 114 | CCN(CC)c1nc(Cl)nc2c(Cl)ncnc12 |
| 180 | Cc1cc2cc(CN3CCCCCC3)cnc2cc1NC(=O)c1ccc(-c2ccc(Cl)s2)cc1 |

| melting point [°C] | SMILES |
| --- | --- |
| 166 to 167 | O=C(CCC1CCCC1)Nc1ccc(NC(=O)CCC2CCCC2)c2c1C(=O)c1ccccc1C2=O |
| 176 to 181 | O=C(CCc1ccncc1)Nc1cccc(-c2ccnc3c(C(=O)c4cccs4)cnn23)c1 |
| 247 | COC(=O)CC[C@H](NC(=O)c1ccc(CCn2cnc3nc(NC(=O)C(C)(C)C)cc-3c2O)cc1)C(=O)OC |
| 56 to 59 | COc1c(Cc2ccccc2)ccc2ccccc12 |
| 100 to 101 | CCCn1cc(C(=O)OCC)c(C(=O)OCC)c1N1C(=O)c2ccccc2C1=O |
| 184 to 188 | Cn1c(COc2ccc(CC3SC(=O)NC3=O)cc2)nc2ccc(OCCc3ccc(N)cc3)cc21 (stereo not given) |
| 268 to 270 | COc1cc(F)c(C(=O)Oc2ccc(C(=O)O)cc2)cc1C12CC3CC(CC(C3)C1)C2 |
| 192 to 193 | COc1ccc(Cl)c2c1C(=O)OC2=O |
| 140 to 142 | O=S(=O)(Nc1ccc2c(OCc3ccc4ccccc4c3)cccc2c1)C(F)(F)F |
| 104 to 108 | CCc1nc2c(OCc3ccccc3)cc(C(=O)N(C)C)cc2n1C |
| 88 | C=CCN1C(=S)N(c2cccc(Oc3ccccc3)c2)C(=O)C1C (stereo not given) |
| 158 to 160 | c1ccc(CN2CCN(Cc3n[nH]c4c3CCc3ccccc3-4)CC2)cc1 |
| 164 to 167 | c1ccc(C(c2ccccc2)(c2ccns2)n2ccnc2)cc1 |
| 95 to 115 | NCCC(O)(c1ccc(Br)cc1)c1cccnc1 (stereo not given) |
| 305 to 308 | O=c1[nH]c2ncc(-c3ccc4[nH]ccc4c3)nc2n1CC1CCOCC1 |
| 237 to 238 | CCNC(=S)Nc1ccc2ncc(Nc3cc(OC)c(OC)c(OC)c3)cc2n1 |
| 115 to 117 | O=C(CCl)NOC(c1ccccc1)c1ccccc1 |
| 268 | Cc1cc(NC(=O)C2=C(O)c3ccc4ccccc4c3S(=O)(=O)N2C)sn1 |
| 267 to 271 | O=C1Cn2c(c(Cl)c3ccccc32)-c2cc(Cl)ccc2N1 |
| 176 | CC(C)c1cccc(C(C)C)c1NC(=O)NCC1(Nc2ccc(I)cc2)CCCC1 |
| 107 | O=C(C(=O)c1ccc(F)c(Br)c1)c1ccc(OCCF)cc1 |
| 97 | CCCCc1ncc(C(=O)O)s1 |
| 216 to 219 | CC(C)(C)C1=CC(C=O)(C(C)(C)C)NN1 (stereo not given) |
| 177 to 178 | C=CCn1c(=O)c2cc(C(=O)OCC)cn2c2ccccc21 |
| 93 to 95 | O=C(Cc1ccc(F)cc1F)c1ccc(Cl)nc1 |

| melting point [°C] | SMILES |
| --- | --- |
| 209 to 217 | COc1cc2ncnc(N3CCCCc4ccc(Br)cc43)c2cc1OC |
| 240 to 241 | C#Cc1cccc(Nc2ncnc3c2ccn3CCOC)c1 |
| 194 to 195 | COc1cc(C2CC(=O)OC(=O)C2)cc2c(C)c(C)oc12 |
| > 200 | Cc1nc(N)c(C#N)c(N2CCc3ccccc3CC2)n1 |
| 210 to 213 | Cn1ccc2cc(NC(=O)Nc3cncnc3)ccc21 |
| 137 to 138 | Clc1cc(Oc2ccc3[nH]ccc3c2)ncn1 |
| 111 to 112 | CC(C)n1nc(-c2sc(C(=O)N3CCCCC3)nc2-c2ccccc2)ccc1=O |
| 154 to 155 | CCCc1nc(C(O)C(C)C)c(C#N)n1Cc1ccc(-c2ccccc2-c2nnnn2C(c2ccccc2)(c2ccccc2)c2ccccc2)cc1 (stereo not given) |
| 238 to 239 | OCc1cc(Nc2nc(-c3ccccc3)nc3ccccc23)[nH]n1 |
| 216 to 217 | CC(=O)NCC1CN(c2ccc(N3CCN(c4nc5ccc([N+](=O)[O-])cc5s4)CC3)c(F)c2)C(=O)O1 (stereo not given) |
| 110 to 111 | CCOCN1C(C)=C(C(C)=O)C(c2cccc([N+](=O)[O-])c2)C(C(=O)OCC)=C1C (stereo not given) |
| 100 to 105 | CCCCn1cc(-c2nnnn2C)c(=O)c2ccccc21 |
| 136 to 138 | CC1(C)COc2ccc(C(N)=O)cc21 |
| 104 to 106 | CCN(CC)CCNc1cccc2c1C(=O)c1c(NCCN(CC)CC)cccc1C2=O |
| 103 to 104 | CCCOc1cc(-n2c(=O)cc(C(F)(F)F)n(C)c2=O)c(F)cc1Cl |
| 197 to 199 | CC12CCC(O)CC1=CCC1C2CCC2(C)C(n3cccn3)=CCC12 (stereo not given) |
| 173 to 174 | Cn1nc(C=NO)nc1NCCCOc1cccc(CN2CCCCC2)c1 |
| 80 to 81 | COc1c(C)c(C)cc(C)c1C(O)(c1ccccc1)C(C)C (stereo not given) |
| 152 to 153 | CC(C)c1cc(C(=O)Nc2ccc(C(=O)O)c(Cl)c2)oc1C(C)C |
| 166 to 168 | O=[N+]([O-])c1cc(CS(=O)(=O)Cc2ccc(O)c([N+](=O)[O-])c2)ccc1O |
| 172 to 174 | CN(C)C1CCN(C(=O)N2CCC(c3[nH]nc4c3C(=O)c3c(NC(=O)NN5CCOCC5)cccc3-4)CC2)CC1 |
| 64 to 67 | O=C(CP(=O)(O)CCCCc1ccccc1)OCc1ccccc1 |
| 115 to 116 | CCCCc1nc(Cl)c(CO)n1Cc1ccc(OCc2ccccc2)cc1 |
| 111 to 113 | CN1CCCC(c2cccc(-n3cnc4cc(C(=O)OCC5CC5)ccc43)c2)C1 (stereo not given) |
| 65 to 67 | c1cc(OCC2CO2)c2nsnc2c1 (stereo not given) |

| melting point [°C] | SMILES |
| --- | --- |
| 247 to 248 | Cc1c(-c2nnn[nH]2)oc2c(c1=O)CSc1ccccc1-2 |
| 218 to 220 | COC(=O)c1ccc2c(c1)C(=O)NC(C(Cl)(Cl)Cl)O2 (stereo not given) |
| 85 to 87 | COc1cc(CCCCC#CCCCC#CCO)c(O)c2ccccc12 |
| 148 to 149 | N#Cc1ccc2c(c1)C(=O)C1(CC1)O2 |
| 118 to 124 | CC1(C)CC(NCCNCCNC2CC(C)(C)N(O)C(C)(C)C2)CC(C)(C)N1O |
| 212 to 216 | CN(C)c1ccc2c(c1)Sc1cc(N(C)C)ccc1N2C(=O)c1cc(C(C)(C)C)c(O)c(C(C)(C)C)c1 |
| 253 to 254 | CCOC(=O)c1cn(C)c2cc(-n3cccc3)c(F)cc2c1=O |
| 166 to 167 | COc1ccc(CC(=O)Nc2c(C)c(C)c3c(c2C)[C@@H](c2ccc(C)cc2)C(C)(C)O3)cc1 |
| 66 to 69 | C=CC(O)(C(CCCCOc1ccccc1)n1cncn1)C(C)(C)C (stereo not given) |
| 202 to 204 | CCCc1nc2c(N)nc3ccccc3c2n1CCCCS(C)(=O)=O |
| 220 to 221 | COc1ccn2c(C)c(CCc3ccc4nc(N)oc4c3)nc2c1 |
| < 50 | COC(=O)C1=C(C)NC(C)=C(C(=O)OCCCOc2ccc(CCOC3CCCCO3)cc2)C1c1cccc([N+](=O)[O-])c1 (stereo not given) |
| 205 | CS(=O)(=O)C(=C1CN(C(c2ccccc2)c2ccccc2)C1)c1cccc(Cl)c1 |
| 293 to 294 | COc1ccc(-c2cn(-c3cc4c(=O)n(NS(C)(=O)=O)c(=O)[nH]c4cc3C(F)(F)F)cn2)cc1 |
| 155 | Cc1cccc(OC(=O)n2c3c(c(=O)n(C4CCCCO4)c2=O)CCC3)c1 (stereo not given) |
| 86 to 88 | CNC(=NC#N)NCCSCc1cc(C)c(CN(C)C)o1 |
| 199 to 201 | CC(=O)C1=C(O)C(=C(C)Nc2ccc(F)cc2)C(=O)OC1=O |
| 227 to 229 | C#Cc1ccc2c(=O)c(C(=O)OCC)cn(-c3ccc(F)cc3)c2c1 |
| 209 to 210 | CC(=O)OCC1c2c(c3ccccc3c3ccccc23)-c2c1c1ccccc1c1ccccc21 |
| 150 to 151 | CC1(c2cccc(N)c2)C2CN(Cc3ccccc3)C(=O)C21 (stereo not given) |
| 120 | CCCCCS(=O)(=O)NC(=O)CCc1ccc(OC(C)C)cc1OCc1ccc(Cl)cc1Cl |
| 300 | N=C(O)c1cc(C(O)=NCCS)c(C(=O)O)cc1C(=O)O |
| 195 to 196 | COc1ccc(C(=O)c2c(N)sc3c2CN(C(=O)OCc2ccccc2)C3)cc1OC |
| 290 | O=C(O)c1cccc2c1[nH]c1c(Cl)c(Cl)ccc12 |

| SMILES | melting point [°C] |
| --- | --- |
| CCc1nc(-c2ccc(/C=C/C3(O)CN4CCC3CC4)cc2)no1 (stereo not given) | 158 to 160 |
